Assay results taken from ChEMBL document CHEMBL5463728, “Data for DCP probe BAY-6096” (2023).

Target: Polyunsaturated fatty acid lipoxygenase ALOX15 (Homo sapiens) (UniProt P16050)
Experiment: Inhibition of Lipoxygenase 15-LO at compound concentration of 10.0 uM in the Eurofins-Panlabs enzyme assay (Eurofins_assay_199017)
Conditions: Compound concentration 10.0 uM

Sequence of Polyunsaturated fatty acid lipoxygenase ALOX15 (Homo sapiens) (P16050 whole entry): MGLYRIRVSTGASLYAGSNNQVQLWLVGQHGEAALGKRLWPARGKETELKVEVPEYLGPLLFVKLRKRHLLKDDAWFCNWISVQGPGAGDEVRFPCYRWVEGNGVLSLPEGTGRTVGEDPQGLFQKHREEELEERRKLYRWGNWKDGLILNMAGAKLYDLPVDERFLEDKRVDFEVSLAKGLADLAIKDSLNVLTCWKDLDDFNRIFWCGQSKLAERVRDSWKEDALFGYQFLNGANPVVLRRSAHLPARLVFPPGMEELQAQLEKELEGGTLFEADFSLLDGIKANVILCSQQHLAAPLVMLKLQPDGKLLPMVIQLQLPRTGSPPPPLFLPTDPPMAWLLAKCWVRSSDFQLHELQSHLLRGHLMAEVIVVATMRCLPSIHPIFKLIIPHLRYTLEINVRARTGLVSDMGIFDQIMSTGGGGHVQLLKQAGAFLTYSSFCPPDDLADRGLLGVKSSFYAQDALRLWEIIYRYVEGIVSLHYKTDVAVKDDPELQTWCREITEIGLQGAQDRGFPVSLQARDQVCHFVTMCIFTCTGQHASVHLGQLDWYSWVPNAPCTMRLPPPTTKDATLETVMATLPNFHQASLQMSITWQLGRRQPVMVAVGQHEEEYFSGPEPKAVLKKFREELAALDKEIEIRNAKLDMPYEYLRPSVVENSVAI

Structure (SMILES): CNc1cc[n+](CCNC(=O)c2ccn3c(-c4c(C)noc4C)cnc3c2)cc1
- inhibition: -0.5%
